Assay results taken from patent US5358947A, “Angiotensin II receptor blocking 2,3-substituted pyrazolo[1,5-a]-1,3,5-triazin-4(3H)-ones” (American Cyanamid Company, priority 1993, dated 1994).
“And” between values parts separate entries of the source, which are not always exact repeats. Equal values may be shown once.

System: ANGIOTENSIN II (AII) VASOPRESSOR RESPONSE
Assay: AII Challenge: angiotensin II (AII) vasopressor response in conscious rats
Format: in vivo
Set-up: Response After AII / Change / Average Change: unit not given here
Settings: for Control Before AII / Change / Response After AII: individual rat; for Control Before AII: in mmHg (unit assumed); for % Inhibition / Average Change: n = 2
Text: By administering a compound of this invention to a rat, and then challenging with angiotensin II, a blockage of the vasopressor response is realized.
Conscious Male Okamoto-Aoki SHR, 16-20 weeks old, weighing approximately 330 g are purchased from Charles River Labs (Wilmington, Mass.). Conscious rats are restrained in a supine position with elastic tape. The area at the base of the tail is locally anesthetized by subcutaneous infiltration with 2% procaine. The ventral caudal artery and vein are isolated, and a cannula made of polyethylene (PE) 10-20 tubing (fused together by heat) is passed into the lower abdominal aorta and vena cava, respectively. The cannula is secured, heparinized (1,000 I.U./ml), sealed and the wound is closed. The animals are placed in plastic restraining cages in an upright position. The cannula is attached to s Statham P23Db pressure transducer, and pulsatile blood pressure is recorded to 10-15 minutes with a Gould Brush recorder. (Chan et al., (Drug Development Res., 18:75-94, 1989).
Angiotensin II (human sequence, Sigma Chem. Co., St. Louis, Mo.) of 0.05 and 0.1 ug/kg i.v. is injected into all rats (predosing response.). Then a test compound, vehicle or a known angiotensin II antagonist is administered i.v., i.p. or orally to each set of rats. The two doses of angiotensin II are given to each rat again at 30, 60, 90, 120, 180, 240 and 300 minutes post dosing the compound or vehicle. The vasopressor response of angiotensin II by a compound is calculated using the vasopressor response (increase in systolic blood pressure) of angiotensin II of each rat predosing the compound as 100%. A compound is considered active if at 30 mg/kg i.v. it antagonized at least 50% of the response.

[1] = 3 mg/kg i.v., AII 0.05 mcg/kg, 30 min post dose
[2] = 3 mg/kg i.v., AII 0.05 mcg/kg, 30 min post dose, listed as Ex. 17
[3] = 3 mg/kg i.v., AII 0.1 mcg/kg, 30 min post dose
[4] = 3 mg/kg i.v., AII 0.1 mcg/kg, 30 min post dose, listed as Ex. 17
[5] = 10 mg/kg i.v., AII 0.05 mcg/kg, 60 min post dose, listed as Ex. 17
[6] = 10 mg/kg i.v., AII 0.05 mcg/kg, 90 min post dose, listed as Ex. 17
[7] = 10 mg/kg i.v., AII 0.05 mcg/kg, 120 min post dose, listed as Ex. 17
[8] = 10 mg/kg i.v., AII 0.05 mcg/kg, 180 min post dose, listed as Ex. 17
[9] = 10 mg/kg i.v., AII 0.05 mcg/kg, 240 min post dose, listed as Ex. 17
[10] = 10 mg/kg i.v., AII 0.05 mcg/kg, 300 min post dose, listed as Ex. 17
[11] = 10 mg/kg i.v., AII 0.1 mcg/kg, 60 min post dose, listed as Ex. 17
[12] = 10 mg/kg i.v., AII 0.1 mcg/kg, 90 min post dose, listed as Ex. 17
[13] = 10 mg/kg i.v., AII 0.1 mcg/kg, 120 min post dose, listed as Ex. 17
[14] = 10 mg/kg i.v., AII 0.1 mcg/kg, 180 min post dose, listed as Ex. 17
[15] = 10 mg/kg i.v., AII 0.1 mcg/kg, 240 min post dose, listed as Ex. 17
[16] = 10 mg/kg i.v., AII 0.1 mcg/kg, 300 min post dose, listed as Ex. 17

For CCCCc1nc2ccnn2c(=O)n1Cc1ccc(-c2ccccc2-c2nn[nH]n2)cc1 [Example 17, 2-Butyl-3-[[2'-(1H-tetrazol-5-yl)[1,1'-biphenyl]-4-yl]methyl]pyrazolo[1,5-a]-1,3,5-triazin-4(3H) -one], the “Control Before AII” value [1] was 252, the Change [2] was 33 and 30 and the “Response After AII” value [2] was 285 and 265. For the same molecule, the “Control Before AII” value [2] was 235, the “% Inhibition” value [1] was 34% and the “Average Change” value [1] was 31.5. For the same molecule, the “Control Before AII” value [3] was 255, the Change [4] was 25 and 35 and the “Response After AII” value [4] was 280 and 260. For the same molecule, the “Control Before AII” value [4] was 225, the “% Inhibition” value [3] was 37% and the “Average Change” value [3] was 30. The Change [5] was 5 and 10, the “Response After AII” value [5] was 255 and 245 and the “Control Before AII” value [5] was 250 and 235. The “% Inhibition” value [5] was 84%, the “Average Change” value [5] was 7.5 and the Change [6] was 25. The “Response After AII” value [6] was 275 and 255, the “Control Before AII” value [6] was 250 and 230 and the “% Inhibition” value [6] was 47%. The “Average Change” value [6] was 25, the Change [7] was 25 and 30 and the “Response After AII” value [7] was 270 and 255. For the same molecule, the “Control Before AII” value [7] was 245 and 225, the “% Inhibition” value [7] was 42% and the “Average Change” value [7] was 27.5. The Change [8] was 20 and 30, the “Response After AII” value [8] was 260 and 240 and the “Control Before AII” value [8] was 240 and 210. The “% Inhibition” value [8] was 47%, the “Average Change” value [8] was 25 and the Change [9] was 25 and 15. For the same molecule, the “Response After AII” value [9] was 270 and 250, the “Control Before AII” value [9] was 245 and 235 and the “% Inhibition” value [9] was 58%. The “Average Change” value [9] was 20, the Change [10] was 40 and 30 and the “Response After AII” value [10] was 290 and 245. The “Control Before AII” value [10] was 250 and 215, the “% Inhibition” value [10] was 26% and the “Average Change” value [10] was 35. For the same molecule, the “Control Before AII” value (10 mg/kg i.v., AII 0.1 mcg/kg, 60 min post dose) was 255, the Change [11] was 5 and 10 and the “Response After AII” value [11] was 260 and 235. For the same molecule, the “Control Before AII” value [11] was 225, the “% Inhibition” value [11] was 84% and the “Average Change” value [11] was 7.5. For the same molecule, the Change [12] was 15 and 35, the “Response After AII” value [12] was 265 and 260 and the “Control Before AII” value [12] was 250 and 225. For the same molecule, the “% Inhibition” value [12] was 47%, the “Average Change” value [12] was 25 and the Change [13] was 25 and 30. For the same molecule, the “Response After AII” value [13] was 275 and 260, the “Control Before AII” value [13] was 250 and 230 and the “% Inhibition” value [13] was 42%. The “Average Change” value [13] was 27.5, the “Control Before AII” value (10 mg/kg i.v., AII 0.1 mcg/kg, 180 min post dose) was 240 and the Change [14] was 30 and 40. The “Response After AII” value [14] was 270 and 265, the “Control Before AII” value [14] was 225 and the “% Inhibition” value [14] was 26%. For the same molecule, the “Average Change” value [14] was 35, the Change [15] was 35 and 30 and the “Response After AII” value [15] was 290 and 270. The “Control Before AII” value [15] was 255 and 240, the “% Inhibition” value [15] was 32% and the “Average Change” value [15] was 32.5. For the same molecule, the Change [16] was 35 and 25, the “Response After AII” value [16] was 285 and 260 and the “Control Before AII” value [16] was 250 and 235. The “% Inhibition” value [16] was 37% and the “Average Change” value [16] was 30.
